Results taken from patent publication US20230203485A1, “METHODS FOR MODULATING MHC-I EXPRESSION AND IMMUNOTHERAPY USES THEREOF” (Dana-Farber Cancer Institute, Inc., priority 2020, published 2023).

System: HLA class I bound peptides of MCC cell lines
Assay: HLA class I immunoprecipitation and LC-MS/MS immunopeptidome of MCC tumors and cell lines +/- IFNγ
Type: cell-based, human
From the text: CL=cell line (left). Correlation heatmap of peptide sequences between MCC lines at baseline and after IFN-γ treatment in motif space (right).
HLA molecules are immunoprecipitated from tumor and cell line material, peptides are eluted from HLA complex and analyzed by LC-MS/MS. After database searching, peptides are assigned to their most likely allele by prediction in HLAthena.
Up to 40 million MCC cells were immunoprecipitated. Briefly, MCC cells were harvested and lysed in ice-cold lysis buffer containing […] (pH 8.0), 1 mM EDTA (pH 8.0), 0.1M sodium chloride, Triton X-100, 0.06M octyl 3-d-glucopyranoside, 100 U/mL DNAse I, 1 mM phenylmethanesulfonyl fluoride (all from Sigma Aldrich), protease inhibitor cocktail (Roche Diagnostics, Indianapolis, Ind.). Cell lysates were centrifuged at 12,700 rpm at 4° C. for 22 min. […] Peptides of up to three IPs were combined, acid eluted, and analyzed using LC/MS/MS as described previously (Abelin, Keskin Immunity). […] Peptides were eluted in a 6-30% gradient (EasyLC 1000 or 1200, ThermoFisher Scientific) and analyzed on a QExactive Plus or Fusion Lumos (ThermoFisher Scientific). […]
For detection of the large T antigen peptide, 3 Ips of a 367 Cell line treated with IFNγ were pooled, acid eluted, fractionated using stage tip basic reverse phase separation and fractions were analyzed on a Fusion Lumos equipped with a FAIMSpro interface (Klaeger et al., in preparation).
Mass spectra were interpreted using Spectrum Mill software package v7.1 pre-Release (Agilent Technologies, Santa Clara, Calif.). […] MS/MS spectra were searched against a protein sequence database that contained 98,298 entries, including all UCSC Genome Browser genes with hg19 annotation of the genome and its protein coding transcripts (63,691 entries), common human virus sequences (30,181 entries), recurrently mutated proteins observed in tumors from 26 tissues (4,167 entries), 264 common laboratory contaminants as well as protein sequences containing somatic mutations detected in MCC cell lines. […]

Substance: IFN-γ: interferon gamma used to stimulate MCC cell lines
- abundance of class I bound peptides, median fold increase (across 4 cell lines, after IFN-γ stimulation vs baseline): 25 fold
- frequencies of peptides mapping to each HLA allele (cell lines exposed or not to IFN-γ): increase in HLA-B-presented peptides

Substance: IFN-y: type II interferon, recombinant human, used to treat MCC cells
- number of detected peptides presented on HLA Class I (tumor derived cell lines, FIG. 3B): increased
